# Measured values from publication PMC11513920, “Building Metabolically Stable and Potent Anti-HIV Thioether-Lipid Analogues of Tenofovir Exalidex: A thorough Pharmacological Analysis” (Journal of Medicinal Chemistry, 2024).
# Where “and” joins values, the source holds several entries; their conditions need not be identical. Identical values can stand only once. Counter-ions that a name gives are not always drawn. Like-named read-outs stand apart in the source and are kept apart here.
# What was measured:
# [1] = test system: HIV-1 subtype C strain MJ4; parameters: method as in PMID 34459598; conditions: previously reported lead; cited from earlier work
# [2] = test system: HepaRG cells; test: HepaRG cellular uptake; conditions: for mean prodrug concentration in HepaRG cells: 20 µM; for HepaRG Cmax: 20 μM, HSA formulation 5:1, recorded after 3 h incubation
# Description: (§1) Naturally, due the metabolic complexity of HepaRG cells, we specifically analyzed prodrug cellular uptake and stability, as represented by Cmax and intrinsic clearance (Clint,u) accordingly (Figure 7 and Table 9).
# (§2) The HepaRG cell line (HPRGC10, Thermo Fisher Scientific) was used to evaluate the cellular permeability and metabolic stability for select final compounds in vitro. The cells were initially thawed with working media composed of HepaRG Thaw, Plate, & General Purpose Medium Supplement (HPRG670), Williams Medium E (100 mL), and GlutaMax (1 mL), all purchased from Thermo Fisher Scientific. […] After the thawing medium was aspirated from each well, the cells were cultured for an additional 6 days with working media consisting of HepaRG Maintenance/Metabolism Medium Supplement (HPRG720), Williams Medium E (500 mL), and GlutaMax (1 mL), all purchased from Thermo Fisher Scientific. Upon completing the 7-day culture period, HepaRG cells were plated in enough wells to allow for duplicate analysis of prodrugs in two independent cellular uptake or metabolic stability experiments. All studied compounds were formulated with human serum albumin (HSA, 5:1 compound to HSA molar ratio) and subsequently diluted to a 20 μM final concentration with assay medium composed of serum-free INVITROGRO HI Medium and TORPEDO Antibiotic Mix purchased from BioIVT. For cellular uptake determinations, the maintenance/metabolism medium was first aspirated from each well, and then the plated cells were spiked with 1.0 mL of test compound stock solution. Subsequently, the plate was incubated at 37 °C under 5% CO2 environment over the desired time course (seven data points/compound). Blank wells not treated with prodrug were included in assay runs as controls and initial time points (0 min). At each time point, the test compound solution was removed from the appropriate wells, and the plated cells were washed with 1.0 mL of DPBS twice. The HepaRG cells were then extracted with 500 μL of cold ISTD solution (1 μM 7-ethoxy-d5-coumarin in 70/30 MeOH/H2O), and the quenched aliquots were centrifuged at 15,000 g for 10 min at 4 °C. […] After obtaining prodrug Cmax and Tmax values from the cellular uptake assay, HepaRG metabolic stability was then assessed. Following the initial 7-day culture procedure, the maintenance/metabolism medium was aspirated from each well, and the plated cells were spiked with 1.0 mL of test compound stock solution. […] The test compound solution was then removed from each well and replaced with untreated dilution medium (i.e., serum-free INVITROGRO HI Medium and TORPEDO Antibiotic Mix), initializing the stability determination. The HepaRG plate was once more incubated at 37 °C under 5% CO2 atmosphere over the desired time course (nine data points/compound), and sample preparation and analysis were handled in identical fashion to cellular uptake experiments.
# [3] = HepaRG cellular uptake; conditions: human, HepaRG Cmax, 20 μM, HSA formulation 5:1, recorded after 3 h incubation
# Description: as §1, §2
# [4] = plasma, p.o. 10 mg/kg; cited from earlier work
# [5] = test system: HEK293T cells; parameters: method as in PMID 34459598; conditions: previously reported lead; cited from earlier work
# [6] = liver, p.o. 10 mg/kg; cited from earlier work
# [7] = test system: HepaRG cells; test: HepaRG cellular metabolic stability; conditions: for HepaRG t1/2: after 3 h loading at 20 μM, 37 °C; for HepaRG Clint,u: calculated from cellular t1/2
# [8] = HepaRG cellular metabolic stability; conditions: human, other cell line
# [9] = dogs; cited from earlier work
# [10] = Human liver microsome stability; conditions: HLM 1 mg/mL, 3 μM compound, NADPH, 37 °C, 120 min course
# Method: Human liver microsomes (HLMs, 20 mg/mL) and CD-1 mouse liver microsomes (MLMs, 20 mg/mL) were purchased from Xenotech. NADPH was purchased from Sigma-Aldrich and prepared in 10 mM stock solutions of distilled H2O (Invitrogen UltraPure). […] Test compounds and positive controls were initially dissolved in MeOH to make 10 mM stock solutions. Sample solutions were then further diluted in 70/30 MeOH/H2O to 500 μM. Next, the reactions were prepared by mixing human or mouse liver microsomes (55 μL) with potassium phosphate buffer (100 mM, 928 μL) in 1.5 mL Eppendorf tubes. The test compounds (6.6 μL of 500 μM solution) were subsequently added to the suspensions, and the reaction mixtures were incubated at 37 °C for 5 min. Afterward, the liver microsome reactions were initiated with 110 μL of 10 mM NADPH and further incubated at 37 °C for the designated time course of the study. […] Each test compound was run in tandem with positive and negative control experiments for quality assurance. Positive control reactions were conducted at a final volume of 550 μL for a single run of each time point.
# For both LM and plasma stability assays, each data point was analyzed in duplicate using in-between blank washes to avoid carry over and to equilibrate the column for the subsequent runs. Averages of these duplicate for individual compounds at each time point were then normalized to the data at 0 min, representing 100% test compound remaining or 0% metabolism. Half-lives (t1/2) were calculated by plotting ln of % test compound remaining versus time and performing linear regression to determine slope.
# Metabolic Stability Assays
# Liver Microsome Stability
# Liver Microsome Stability Assay Setup Example
# Quenching Mixture: 100 µL MeOH with ISTD (2 µM d5-7-ethoxycoumarin).
# Final Volume After Quenching: 200 µL (100 µL from reaction mixture + 100 µL quencher
# solution; ISTD final concentration of 1.0 µM).
# [11] = Cellular cytotoxicity (cell viability, CellTiter 96 or resazurin); conditions: human, CC50, HEK293T cells, compounds formulated with HSA (5:1)
# [12] = in vitro; conditions: human, other cell line
# [13] = in vitro; conditions: human, HepaRG Cmax, 20 μM, HSA formulation 5:1, recorded after 3 h incubation
# Description: as §1, §2
# [14] = depending on food intake; cited from earlier work
# [15] = HepaRG Clint,u, calculated from cellular t1/2
# [16] = HepaRG t1/2, after 3 h loading at 20 μM, 37 °C
SMILES,mean prodrug concentration in HepaRG cells ([2]; 0.5 h) [ng/mL],mean prodrug concentration in HepaRG cells ([2]; 1 h) [ng/mL],mean prodrug concentration in HepaRG cells ([2]; 2 h) [ng/mL],mean prodrug concentration in HepaRG cells ([2]; 3 h) [ng/mL],mean prodrug concentration in HepaRG cells ([2]; 5 h) [ng/mL],mean prodrug concentration in HepaRG cells ([2]; 7 h) [ng/mL],HepaRG Cmax [2] [ng/mL],Prodrug AUC0-24h [4] [ng·h/mL],Prodrug Cmax [4] [ng/mL],Prodrug Tmax [4] [min],Prodrug t1/2 [4] [min],k [4],Prodrug AUC0-24h [6],Prodrug Cmax [6] [ng/mL],HepaRG t1/2 [7] [min],"HepaRG Clint,u [7] [μL/min/million cells]",further results
C[C@H](Cn1cnc2c(N)ncnc21)OCP(=O)(O)OCCCOCCCCCCCCCCCCCCCC(F)(F)F.N [compound 1],141.43,180.34,319.83,337.43,321.56,417.13,337.4 ± 1.0,1280,125,120,520,0.080,"109,000 h·ng/mL",8710,42.9 ± 0.5,29.4,"IC50 [1]: 0.049 ± 0.01 µM; Cmax at 3 h, 20 μM [3]: 337 ng/mL; CC50 [5]: > 100 µM; hepatocyte CLint at 20 μM [8, 15]: ~29 µL/min/1e6 cells; half-life at 20 μM [8, 16]: 43 to 44 min"
"CC(C)OC(=O)[C@H](C)N[P@](=O)(CO[C@H](C)Cn1cnc2c(N)ncnc21)Oc1ccccc1 [TAF, tenofovir alafenamide]",,,,,,,,,,,,,,,,,share of oral dose undergoing hepatic processing [9]: 65%
"CCCCCCCCCCCCCCCCOCCCOP(=O)(O)CO[C@H](C)Cn1cnc2c(N)ncnc21 [TXL, tenofovir exalidex]",258.83,311.46,378.66,397.09,468.27,536.47,397.1 ± 1.4,301,125,60,175,0.237,4970 ng·h/mL,2730,44.3 ± 0.5,28.5,"HLM t1/2 [10]: 42 min and 41.6 ± 9.0 ^d min; CC50 at 48 h [11]: 97.6 ± 2.7 µM; hepatocyte CLint [12, 15]: ~29 µL/min/1e6 cells; half-life [12, 16]: 43 to 44 min; Prodrug Tmax [6]: 60 min; Cmax [13]: 397 ng/mL"
"CC(C)OC(=O)OCOP(=O)(CO[C@H](C)Cn1cnc2c(N)ncnc21)OCOC(=O)OC(C)C [TDF, tenofovir disoproxil fumarate]",,,,,,,,,,,,,,,,,oral bioavailability [14]: 25–40%
